From patent US20230278972A1, “SUBSTITUTED HALOALKYL SULFONANILIDE HERBICIDES” (FMC Corporation, priority 2020, published 2023)

Experiments:
Type in all cases: in vivo
[1] = system: blackgrass (Alopecurus myosuroides); test: Test A1 preemergence, blackgrass
Procedure, shortened: (§1)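 Both timings started from seed in a loam-sand blend. Preemergence pots got a directed soil application immediately; postemergence pots were sprayed when seedlings had one or two leaves and stood 2–10 cm. Each compound was prepared in a non-phytotoxic solvent plus surfactant.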

[2] = system: corn (Zea mays); test: Test A1 preemergence, corn
Procedure, shortened: (§2)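 Pre: seeds in loam/sand blend, directed soil spray. Post: potted plants, same soil, 2–10 cm, 1–2 leaf stage. Chemicals in non-phytotoxic solvent + surfactant for both.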

[3] = system: Foxtail, Giant (giant foxtail, Setaria faberi); test: Test A1 preemergence, Foxtail, Giant
Procedure, shortened: as §1

[4] = system: goosegrass (Eleusine indica); test: Test A1 preemergence, goosegrass
Procedure, shortened: as §1

[5] = system: kochia (Bassia scoparia); test: Test A1 preemergence, kochia
Procedure, shortened: as §1

[6] = system: Oat, Wild (wild oat, Avena fatua); test: Test A1 preemergence, Oat, Wild
Procedure, shortened: as §1

[7] = system: Pigweed, Palmer (palmer amaranth, palmer pigweed, Amaranthus palmeri); test: Test A1 preemergence, Pigweed, Palmer
Procedure, shortened: as §1

[8] = system: ragweed (common ragweed, Ambrosia artemisiifolia); test: Test A1 preemergence, ragweed
Procedure, shortened: as §1

[9] = system: Ryegrass, Italian (Italian ryegrass, Lolium multiflorum); test: Test A1 preemergence, Ryegrass, Italian
Procedure, shortened: as §1

[10] = system: soybean (Glycine max); test: Test A1 preemergence, soybean
Procedure, shortened: as §1

[11] = system: wheat (Triticum aestivum); test: Test A1 preemergence, wheat
Procedure, shortened: as §1

[12] = system: blackgrass (Alopecurus myosuroides); test: Test A1 postemergence, blackgrass; conditions: Postemergence, 0 to 100 scale (0 no effect, 100 complete control)
Procedure, shortened: (§3)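 Plants were grown in a loam soil/sand blend, with test chemicals formulated in a non-phytotoxic solvent mixture containing surfactant. Preemergence treatment (corn) was a directed soil spray at planting. Postemergence treatment was applied to plants 2 to 10 cm tall at the one- to two-leaf stage.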

[13] = system: corn (Zea mays); test: Test A1 postemergence, corn; conditions: Postemergence
Procedure, shortened: as §1

[14] = system: Foxtail, Giant (giant foxtail, Setaria faberi); test: Test A1 postemergence, Foxtail, Giant; conditions: Postemergence
Procedure, shortened: as §3

[15] = system: goosegrass (Eleusine indica); test: Test A1 postemergence, goosegrass; conditions: Postemergence
Procedure, shortened: as §3

[16] = system: kochia (Bassia scoparia); test: Test A1 postemergence, kochia; conditions: Postemergence
Procedure, shortened: as §3

[17] = system: Oat, Wild (wild oat, Avena fatua); test: Test A1 postemergence, Oat, Wild; conditions: Postemergence
Procedure, shortened: as §2

[18] = system: Pigweed, Palmer (palmer amaranth, palmer pigweed, Amaranthus palmeri); test: Test A1 postemergence, Pigweed, Palmer; conditions: Postemergence
Procedure, shortened: as §2

[19] = system: ragweed (common ragweed, Ambrosia artemisiifolia); test: Test A1 postemergence, ragweed; conditions: Postemergence
Procedure, shortened: as §2

[20] = system: Ryegrass, Italian (Italian ryegrass, Lolium multiflorum); test: Test A1 postemergence, Ryegrass, Italian; conditions: Postemergence
Procedure, shortened: as §3

[21] = system: soybean (Glycine max); test: Test A1 postemergence, soybean; conditions: Postemergence
Procedure, shortened: as §3

[22] = system: wheat (Triticum aestivum); test: Test A1 postemergence, wheat; conditions: Postemergence
Procedure, shortened: as §3

[23] = system: galium (catchweed bedstraw, Galium aparine); test: Test A1 postemergence, galium; conditions: Postemergence
Procedure, shortened: as §3

[24] = system: horseweed (Erigeron canadensis); test: Test A1 postemergence, horseweed; conditions: Postemergence
Source text: Seeds of plant species selected from, blackgrass (Alopecurus myosuroides), corn (Zea mays), Foxtail, Giant (giant foxtail, Setaria faberi), goosegrass (Eleusine indica), kochia (Bassia scoparia), Oat, Wild (wild oat, Avena fatua), Pigweed, Palmer (palmer amaranth, palmer pigweed, Amaranthus palmeri), ragweed (common ragweed, Ambrosia artemisiifolia), Ryegrass, Italian (Italian ryegrass, Lolium multiflorum), soybean (Glycine max), and wheat (Triticum aestivum) were planted into a blend of loam soil and sand and treated preemergence with a directed soil spray using test chemicals formulated in a non-phytotoxic solvent mixture which included a surfactant. At the same time, plants selected from these crop and weed species and also galium (catchweed bedstraw, Galium aparine) and horseweed (Erigeron canadensis) were planted in pots containing the same blend of loam soil and sand and treated with postemergence applications of test chemicals formulated in the same manner. Plants ranged in height from 2 to 10 cm and were in the one- to two-leaf stage for the postemergence treatment. […] A dash (-) response means no test result.

[25] = system: barnyardgrass (Echinochloa crus-galli); test: Test B1 flooded paddy test, barnyardgrass; conditions: 250 g ai/ha, Flood, applied to paddy water, 2-leaf stage, visually evaluated after 10 to 14 days
Source text: (§4) A dash (-) response means no test result.

[26] = system: ducksalad (Heteranthera limosa); test: Test B1 flooded paddy test, ducksalad; conditions: 250 g ai/ha, Flood, applied to paddy water, 2-leaf stage, visually evaluated after 10 to 14 days
Source text: as §4

[27] = system: rice (Oryza sativa); test: Test B1 flooded paddy test, rice; conditions: 250 g ai/ha, Flood, applied to paddy water, 2-leaf stage, visually evaluated after 10 to 14 days
Source text: as §4

[28] = 31 g ai/ha, 0 to 100 scale (0 no effect, 100 complete control)
[29] = 125 g ai/ha, 0 to 100 scale, 0 no effect, 100 complete control
[30] = 31 g ai/ha, 0 to 100 scale (0 no effect, 100 complete control), 10 days

Cc1cc(C2CC2)c(C2=NOC3CCCC23)cc1NS(=O)(=O)C(F)(F)F (stereo not drawn) [Compound 307]
70: Plant response rating, Ducksalad (0 to 100 scale, 0 is no effect, 100 is complete control) [26]
80: Plant response rating, Goosegrass [4, 28] | Plant response rating, Pigweed, Palmer [7, 29] | Plant response rating, Wheat [11, 29] | Plant response rating, Goosegrass ([15]; 125 g ai/ha, 0 to 100 scale) | Plant response rating, Ragweed ([19]; 125 g ai/ha, 0 to 100 scale) | Plant response rating, Ryegrass, Italian ([20]; 125 g ai/ha, 0 to 100 scale) | Plant response rating, Horseweed ([24]; 125 g ai/ha, 0 to 100 scale)
30: Plant response rating, Pigweed, Palmer [7, 28] | Plant response rating, Soybean [10, 29] | Plant response rating, Goosegrass [15, 30] | Plant response rating, Kochia ([16]; 125 g ai/ha, 0 to 100 scale) | Plant response rating, Wheat [22, 30] | Plant response rating, Horseweed [24, 30]
40: Plant response rating, Oat, Wild [6, 29] | Plant response rating, Foxtail, Giant ([14]; 125 g ai/ha, 0 to 100 scale) | Plant response rating, Pigweed, Palmer ([18]; 125 g ai/ha, 0 to 100 scale) | Plant response rating, Wheat ([22]; 125 g ai/ha, 0 to 100 scale) | Plant response rating, Galium [23, 30]
20: Plant response rating, Foxtail, Giant [14, 30] | Plant response rating, Oat, Wild ([17]; 125 g ai/ha, 0 to 100 scale) | Plant response rating, Ryegrass, Italian [20, 30]
100: Plant response rating, Foxtail, Giant [3, 29] | Plant response rating, Goosegrass [4, 29] | Plant response rating, Ryegrass, Italian [9, 29]
0: Plant response rating, Blackgrass [1, 28] | Plant response rating, Corn [2, 28] | Plant response rating, Corn [2, 29] | Plant response rating, Kochia [5, 28] | Plant response rating, Oat, Wild [6, 28] | Plant response rating, Ragweed [8, 28] | Plant response rating, Soybean [10, 28] | Plant response rating, Blackgrass ([12]; 31 g ai/ha, 10 days) | Plant response rating, Corn [13, 30] | Plant response rating, Corn ([13]; 125 g ai/ha, 0 to 100 scale) | Plant response rating, Kochia [16, 30] | Plant response rating, Oat, Wild [17, 30] | Plant response rating, Pigweed, Palmer [18, 30] | Plant response rating, Ragweed [19, 30] | Plant response rating, Rice (0 to 100 scale, 0 is no effect, 100 is complete control) [27]
60: Plant response rating, Ragweed [8, 29] | Plant response rating, Galium ([23]; 125 g ai/ha, 0 to 100 scale) | Plant response rating, Barnyardgrass (0 to 100 scale, 0 is no effect, 100 is complete control) [25]
10: Plant response rating, Kochia [5, 29] | Plant response rating, Wheat [11, 28] | Plant response rating, Blackgrass ([12]; 125 g ai/ha) | Plant response rating, Soybean [21, 30]
50: Plant response rating, Blackgrass [1, 29] | Plant response rating, Foxtail, Giant [3, 28] | Plant response rating, Ryegrass, Italian [9, 28] | Plant response rating, Soybean ([21]; 125 g ai/ha, 0 to 100 scale)
